Literature values, collected in US20090311317A1, “MODIFIED RELEASE TOLTERODINE FORMULATIONS” (Capricorn Pharma Inc., priority 2008, published 2009).
Where a name gives a salt, the structure may show the parent alone.

Experiments:
[1] = system: muscarinic receptors of the salivary gland; details: versus oxybutynin
bladder = details: versus oxybutynin

Cc1ccc(O)c([C@@H](CCN(C(C)C)C(C)C)c2ccccc2)c1 [tolterodine, (+)-N,N-diisopropyl-3-(2-hydroxy-5-methylphenyl)-3-phenylpropylamine L-hydrogen tartrate]
affinity for muscarinic receptors of the salivary gland relative to oxybutynin [1]: eight times lower
potency in the bladder relative to oxybutynin (bladder): equipotent with oxybutynin
